Data on one molecule can be found in patent publication US7595063B2, “Compressed tablet formulation” (Merck & Co., Inc., priority 1998, dated 2009).

The data set can be described thus: crystallinity of efavirenz upon compression. Type of data set: physicochemical. The following applies: compression into tablet.

Regarding `O=C1Nc2ccc(Cl)cc2[C@@](C#CC2CC2)(C(F)(F)F)O1` [efavirenz, (−)-6-chloro-4-cyclopropylethynyl-4-trifluoromethyl-1,4-dihydro-2H-3,1-benzoxazin-2-one], the crystallinity upon compression result is “loses crystallinity upon compression”.
